Measured values from the supplement of paper PMC8671470.

Tests used:
Settings in all cases: 72 h
MV4-11 [1] = test system: MV4-11
Summary of the method: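 Fifteen myeloid leukaemia cell lines were seeded in RPMI 1640 at a density titrated to the linear growth range. Each line went into 384-well plates with compounds acoustically pre-printed at five tenfold doses from 1 to 10,000 nM, in duplicate, and was incubated for 72 h at 37 °C with 5% CO2. Luminescent ATP viability was normalised to vehicle and to a positive control at 10 µM. The IC50 came from four-parameter log-logistic dose–response fits.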

HL-60 [2] = assay: cell viability (% survival relative to DMSO control); higher = less cytotoxic
Summary of the method: (§1)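 For each screen, HL-60 cells in RPMI 1640 with 10% FBS carried either DMSO or 100 nM of one of three metabolic inhibitors while the full library was applied at five tenfold concentrations, 1–10,000 nM, in duplicate. Plates were 384-well and were kept 72 h at 37 °C, 5% CO2. Viability, measured by CellTiter-Glo, was normalised to wells with DMSO and with 10 μM proteasome inhibitor. Where area under the curve appears, it was fitted by four-parameter log-logistic models in drc and PharmacoGx.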

BV-173 = assay: cell viability (% survival relative to DMSO control, bortezomib = 0%); higher = less cytotoxic
Summary of the method: (§2)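 Reported values are percent survival from duplicate wells, averaged. Fifteen myeloid leukaemia cell lines were treated in 384-well plates with compounds at 1, 10, 100, 1000 or 10000 nM for 72 h at 37 °C in 5% CO2. Signals from CellTiter-Glo luminescence were scaled with vehicle as 100% and a 10 µM positive control as 0%.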

HEL = assay: as above
Summary of the method: as §2

HL-60 [3] = assay: as above
Summary of the method: as §2

K-562 = assay: as above
Summary of the method: as §2

KCL-22 = assay: as above
Summary of the method: as §2

KG-1 = assay: as above
Summary of the method: as §2

KU-812 = assay: as above
Summary of the method: as §2

LAMA-84 = assay: as above
Summary of the method: as §2

ML-2 = assay: as above
Summary of the method: as §2

MOLM-13 = assay: as above
Summary of the method: as §2

MV4-11 [4] = assay: as above
Summary of the method: as §2

Mono-Mac-6 = assay: as above
Summary of the method: as §2

NOMO-1 = assay: as above
Summary of the method: as §2

SHI-1 = assay: as above
Summary of the method: as §2

THP-1 = assay: as above
Summary of the method: as §2

HL-60 [5] = assay: area under dose-response curve (viability, 1 nM-10 uM) (fraction (0-1)); higher = more sensitive
Summary of the method: as §1

CCN(CC)CCCC(C)Nc1ccnc2cc(Cl)ccc12 (stereo not given) [Chloroquine]
Settings | IC50 (cell viability) [µM]
MV4-11 [1] | > 10

cell viability [%], HL-60 [2]
Settings | 0.001 µM | 0.01 µM | 0.1 µM | 1 µM | 10 µM
co-treatment: AZD3965 100 nM | 102 | 87.5 | 107.4 | 104 | 97.5
co-treatment: DMSO vehicle | 104 | 91.3 | 102.4 | 106 | 99.7
co-treatment: GSK2194069 100 nM | 102.2 | 77.2 | 98.3 | 102 | 89.7
co-treatment: pictilisib 100 nM | 96.1 | 67.7 | 104 | 103.8 | 100

Settings | area under dose-response curve, co-treatment: AZD3965 100 nM | area under dose-response curve, co-treatment: DMSO vehicle | area under dose-response curve, co-treatment: GSK2194069 100 nM | area under dose-response curve, co-treatment: pictilisib 100 nM | cell viability, 1 nM [%] | cell viability, 10 nM [%] | cell viability, 100 nM [%] | cell viability, 1000 nM [%] | cell viability, 10000 nM [%]
BV-173 | – | – | – | – | 111 | 89.5 | 111 | 97.1 | 85.2
HEL | – | – | – | – | 95.4 | 94.5 | 89.6 | 97.6 | 104
HL-60 [3] | – | – | – | – | 101 | 79.8 | 97.1 | 101 | 76.4
HL-60 [5] | < 0.0301 | < 0.0301 | < 0.0301 | < 0.0301 | – | – | – | – | –
K-562 | – | – | – | – | 101 | 111 | 105 | 103 | 86.3
KCL-22 | – | – | – | – | 95.6 | 106 | 100 | 95.7 | 102
KG-1 | – | – | – | – | 112 | 101 | 89.7 | 102 | 88.1
KU-812 | – | – | – | – | 109 | 97.8 | 102 | 98.1 | 96.9
LAMA-84 | – | – | – | – | 105 | 101 | 101 | 101 | 99.1
ML-2 | – | – | – | – | 108 | 98.7 | 97 | 100 | 94
MOLM-13 | – | – | – | – | 103 | 81.8 | 112 | 107 | 101
MV4-11 [4] | – | – | – | – | 108 | 93.7 | 105 | 104 | 90.5
Mono-Mac-6 | – | – | – | – | 105 | 94.9 | 104 | 93.4 | 92.1
NOMO-1 | – | – | – | – | 110 | 99.3 | 97.9 | 96.2 | 93.7
SHI-1 | – | – | – | – | 108 | 106 | 96.6 | 89.8 | 92
THP-1 | – | – | – | – | 108 | 101 | 101 | 98.7 | 98.5

Cc1cn([C@H]2C[C@H](O)[C@@H](COP(=O)(O)OP(=O)(O)O)O2)c(=O)[nH]c1=O [Thymidine diphosphate]
Settings | IC50 (cell viability) [µM]
MV4-11 [1] | > 10

cell viability [%], HL-60 [2]
Settings | 0.001 µM | 0.01 µM | 0.1 µM | 1 µM | 10 µM
co-treatment: AZD3965 100 nM | 97.44 | 97.9 | 101 | 102 | 98.5
co-treatment: DMSO vehicle | 101 | 100.1 | 97.7 | 101 | 95.1
co-treatment: GSK2194069 100 nM | 104.9 | 75.9 | 97.8 | 104 | 95.3
co-treatment: pictilisib 100 nM | 105 | 94 | 106 | 111 | 89.1

Settings | area under dose-response curve, co-treatment: AZD3965 100 nM | area under dose-response curve, co-treatment: DMSO vehicle | area under dose-response curve, co-treatment: GSK2194069 100 nM | area under dose-response curve, co-treatment: pictilisib 100 nM | cell viability, 1 nM [%] | cell viability, 10 nM [%] | cell viability, 100 nM [%] | cell viability, 1000 nM [%] | cell viability, 10000 nM [%]
BV-173 | – | – | – | – | 92.3 | 83.5 | 98.2 | 78 | 39
HEL | – | – | – | – | 99.1 | 89.4 | 93.2 | 106 | 103
HL-60 [3] | – | – | – | – | 88.6 | 85.2 | 87.7 | 109 | 104
HL-60 [5] | < 0.0301 | < 0.0301 | < 0.0301 | < 0.0301 | – | – | – | – | –
K-562 | – | – | – | – | 104 | 91.1 | 105 | 100 | 99.6
KCL-22 | – | – | – | – | 111 | 89.8 | 98.3 | 97.7 | 85.6
KG-1 | – | – | – | – | 101 | 95.2 | 97.5 | 95.6 | 104
KU-812 | – | – | – | – | 88.2 | 93.6 | 109 | 96.9 | 102
LAMA-84 | – | – | – | – | 97.1 | 97.9 | 106 | 94.5 | 86.7
ML-2 | – | – | – | – | 95.6 | 87.9 | 95.5 | 96.4 | 106
MOLM-13 | – | – | – | – | 108 | 92.1 | 110 | 105 | 103
MV4-11 [4] | – | – | – | – | 95.7 | 87.8 | 98.6 | 102 | 96.4
Mono-Mac-6 | – | – | – | – | 95.1 | 88.1 | 105 | 91.8 | 92.5
NOMO-1 | – | – | – | – | 98.1 | 99.8 | 100 | 98.6 | 95.8
SHI-1 | – | – | – | – | 96.2 | 89.3 | 110 | 91.8 | 107
THP-1 | – | – | – | – | 99 | 92.5 | 95.8 | 95.7 | 99.3
